# From US6808876B1, “Cellular regulators of infectious agents and methods of use” (Immusol, Inc., priority 2000, dated 2004)
# Legend:
# HCV IRES = assay: Ratio of Core protein to RNA transcript as indicator of HCV IRES translational activity; type: cell-based, Hepatitis C virus; settings: GCV resistant colonies, compared with control Rz BR1
# Excerpt: However, to eliminate differences in expression of the retroviral transcript (harboring the 5′ UTR Core transcript) between different Rz vector transduced cells, we used the ratio between expressed Core protein and RNA transcript levels as an indicator of HCV IRES translational activity.
# HCV Core protein = settings: for core protein expression, reduced to % of control RzBR1 transduced cells: GCV-resistant cells, remaining level relative to control RzBR1
# Description: Upon construction of the retroviral vector pLHPM a cassette translating the HCV Core protein via the HCV IRES was placed into the 3′ part of the LTR transcript. Thereby, cells transduced with the library or single Rz candidates could be analyzed for the HCV Core protein expression by Western blotting. Western blotting was performed on protein lysates using an enhanced chemiluminescent blotting detection kit (Novex), and anti-HCV core monoclonal antibody (6C7 provided by Harry Greenberg, Stanford University). Blots were exposed to film and band intensities measured using a phosphoimager and ImageQuant software. […] Band volumes of HCV Core protein in Western blotting were analyzed by densitometry, normalized towards beta-actin and expressed as percentage relative to the control (RzBR1).
# [1] = test system: LTR-Core and HSV-tk transcripts; assay: Northern blotting of LTR-Core, HSV-tk and GAPDH transcripts; type: cell-based; settings: normalized to GAPDH, relative to control Rz transduced 5′tk cells
# Description: To assure that the observed reductions in Core protein were not caused by reduced levels of RNA transcript, Northern blotting analysis was performed on […] extracted from stable Rz expressors after GCV selection. Total RNA (15 μg per lane) extracted from cultures at 80% confluency was separated by formaldehyde/1% agarose gel electrophoresis and transferred to nylon membrane. The RNAs were probed for different parts of the two vector derived transcripts expressed in these cells: probes were directed against the tk part of the bicistronic transcript or against the Core portion of the retroviral vector transcript respectively. −^32P dCTP labelled probes were hybridized to the membrane in Quickhyb solution (Stratagene) at 65° C. After washing in 2×SSC/0.1%SDS and exposure to film, quantitation of signal was achieved by phosphimager analysis and computer-assisted denistometry as for the Western procedure. Levels of LTR-Core (4.8 kb) and HSV-tk (2.8 kb) transcripts were normalized to signals derived from GAPDH and expressed as percentage of the signal obtained from control Rz transduced 5′tk cells.
# untransfected HeLa cells = assay: GCV application to untransfected HeLa cells or cells expressing Core protein in place of tk; type: cell-based; settings: GCV 10-100 uM
# Description: Translation of HSV-tk-mediated by HCV 5′UTR (cap-independent, HCV nucleotides 38-341) was confirmed by Western blotting analysis of the tk protein. The vector was designed such that the authentic HCV Core protein translation start site (AUG at position 342 of the viral RNA) serves as the translation initiation site for the tk gene. The functional activity of tk was determined by administration of GCV to the cell culture medium. […] To confirm that tk expression was mediated by HCV IRES and not from read-through translation of the hygromycin gene, two control plasmids were generated that were identical to the parental, except for deletion of part of the 5′UTR necessary for IRES function. A reporter cell line was generated by electroporation of HeLa cells with pHyg-5′tk and selected with 250 μg/ml hygromycin. Single cell clones of stable HSV-tk expressing cells (HeLa 5′tk cells) were obtained according to standard limited dilution cloning techniques and functionally characterized for GCV-mediated cell killing.
# HeLa 5′tk cells = assay: GCV-mediated cell killing of HSV-tk expressing HeLa 5′tk cells; type: cell-based
# Excerpt: The Hela cell line used in these experiments was modified with a bicistronic reporter gene that confers hygromycin B resistance and GCV […]. The bicistronic reporter gene pHyg-5′tk was constructed with the SV40 promoter driving the expression of hygromycin B phosphotransferase and the 5′ untranslated region of HCV (nucleotides (nt) 38-341) upstream of HSV thymidine kinase (HSV-tk, see FIG. 1). The 5′ nontranslated region of hepatitis C virus (HCV) functions as an internal ribosome entry site (IRES) and is essential for translation of HCV proteins. Transcription of the 5′ nontranslated region allows for IRES-mediated translation of HSV-tk, which converts GCV to the monophosphate which is further metabolized to the triphosphate a cytotoxic analog of GTP. […]
# Translation of HSV-tk-mediated by HCV 5′UTR (cap-independent, HCV nucleotides 38-341) was confirmed by Western blotting analysis of the tk protein. […] The functional activity of tk was determined by administration of GCV to the cell culture medium. […] To confirm that tk expression was mediated by HCV IRES and not from read-through translation of the hygromycin gene, two control plasmids were generated that were identical to the parental, except for deletion of part of the 5′UTR necessary for IRES function. […]
# [2] = target: Herpes simplex virus thymidine kinase (HSV-tk) (Human herpesvirus 1, UniProt P0DTH5); settings: cited from earlier work
# Chain of Herpes simplex virus thymidine kinase (HSV-tk) (P0DTH5 whole entry): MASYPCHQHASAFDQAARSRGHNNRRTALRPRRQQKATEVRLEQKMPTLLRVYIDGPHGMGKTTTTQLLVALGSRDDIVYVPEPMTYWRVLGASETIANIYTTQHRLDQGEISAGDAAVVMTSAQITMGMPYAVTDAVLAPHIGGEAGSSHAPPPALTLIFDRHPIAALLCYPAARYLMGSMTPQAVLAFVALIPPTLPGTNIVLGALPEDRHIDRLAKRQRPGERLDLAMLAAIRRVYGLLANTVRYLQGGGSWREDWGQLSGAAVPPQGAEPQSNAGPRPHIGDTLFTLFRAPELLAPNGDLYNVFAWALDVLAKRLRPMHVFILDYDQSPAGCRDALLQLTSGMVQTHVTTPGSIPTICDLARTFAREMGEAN
Compound,reduction of HCV IRES-dependent translatability (ratio Core protein/RNA transcript) (HCV IRES) [%],"core protein expression, reduced to % of control RzBR1 transduced cells (HCV Core protein) [%]",better substrate for HSV-tk compared to mammalian tk [2],also measured
"HCV6: hairpin ribozyme, SEQ ID NO:52; targets human eIF2Bγ mRNA (TTCTTATTAGAAAGCTACCAGAGAAACACACGTTGTGGTACATTACCTGGTA; chemistry not given here)",83,52,–,–
"HCV4: hairpin ribozyme, SEQ ID NO:50; binding sequence partially matches gamma subunit of human eIF2 (CTAACTTTAGAAACTAACCAGAGAAACACACGTTGTGGTACATTACCTGGTA; chemistry not given here)",76,42,–,–
"HCV8: hairpin ribozyme conferring GCV resistance, SEQ ID NO:54 (AGCCGAGGAGAATCCCACCAGAGAAACACACGTTGTGGTACATTACCTGGTA; chemistry not given here)",–,–,–,"reduction of Core transcript [1]: 20%; decrease (reduction) in Core protein compared to control Rz transduced cells (HCV Core protein; GCV resistant colonies, normalized to beta-actin, relative to control RzBR1): 95%"
"Nc1nc(O)c2ncn(COC(CO)CO)c2n1 [GCV, [9-(1,3-dihydroxy-2-propoxy)methly] guanine]",–,–,about 1000 fold,"effect of GCV application on tk-negative cells (untransfected HeLa cells): remained unaffected; cell death on continuous GCV application (HeLa 5′tk cells; continuous GCV 10-100 uM, HSV-tk expressing HeLa cells): complete cell death; GCV killing of selected HeLa 5′tk clone (HeLa 5′tk cells; exposure to 20 uM GCV): completely killed"
"O=c1[nH]c(=O)n([C@@H]2O[C@H](CO)[C@@H](O)[C@@H]2F)cc1I [FIAU, 1-(2″-deoxy-2′-fluoro-1-β-D-arabinofuranosyl-5-ido)uracil]",–,–,about 1000 fold,–
